Laboratory results: patent US8313771B2, “Phosphazene hydrogels with chemical corss-link, preparation method thereof and use thereof” (Korea Institute of Science and Technology, priority 2007, dated 2012)

Conditions: pH 7.4

| Max. gelling temp. [°C] | Substance |
| --- | --- |
| 32 | poly[(isoleucine ethyl ester)(aminomethoxypolyethylene glycol 550)(cysteine ethyl ester)phosphazene] [Example 10] |
| 39 | poly[(isoleucine ethyl ester)(aminomethoxypolyethylene glycol 550)(aminoethylmethacrylate)phosphazene] [Example 4] |
| 34 | poly[(isoleucine ethyl ester)(aminomethoxypolyethylene glycol 550)(tyramine)phosphazene] [Example 18] |
| 28 | [(isoleucine ethyl ester)(aminomethoxypolyethylene glycol 550)(aminoethylmethacrylate)phosphazene] [Example 2] |
